How the values were obtained:
[1] = Pharmacokinetic study (2): phenylbutyric acid monomer in plasma and liver by LC/MS; assay type: in vivo, ICR mice; conditions: 200 mg/kg (1.22 mmol-4PBA/kg); blood and liver
Description: Forty-five (45) 7-week-old ICR mice (male) were randomly divided into the following three groups. Doses for the administration groups 2GP and 3GP were determined so that the amount of phenylbutyric acid contained therein reached 200 mg/kg (1.22 mmol-4PBA/kg). After each sample is administered nearly simultaneously to all the mice, 1 mL of blood is taken by cardiac puncture, according to each endpoint (7 endpoints of 30 min, 1 h, 2 h, 4 h, 12 h, 16 h, 24 h), to separate plasma. The target organ, liver, was also taken out from each of the mice, and content of the phenyl butyric acid monomer was quantified by high performance liquid chromatography/mass spectrometry (LC/MS). The measurement results are illustrated in FIG. 43. In these figures, PBA was totally metabolized within 4 hours, whereas 4-Ph-BNP persistently released the phenylbutyric acid monomer in the blood and in the liver, and the release was not terminated even after 24 hours.
1GP: Saline (control, 3 mice) 2GP: 4-Phenylbutyric acid (7 endpoints (30 min, 1 h, 2 h, 4 h, 12 h, 16 h, and 24 h)×3 mice) 3GP: Ph-BNP (7 endpoints (30 min, 1 h, 2 h, 4 h, 12 h, 16 h, and 24 h)×3 mice)

[2] = Antidiabetic test (glucose resistance test, pancreatic histology); assay type: in vivo, C57BL/6J mice; conditions: for size of the islets of Langerhans: H & E stained pancreatic tissue; for glucose concentration in glucose resistance test: glucose 2 g/kg orally, [glucose]60 min−[glucose]0 min, compared with the diabetic model mice
Description: (§1) Seven 7 to 8-week-old C57BL/6J mice (male) per group were obtained from Charles River Japan, Inc (Yokohama). These mice were bred while being freely fed with a standard solid feed at controlled temperature (23±1° C.) and humidity (50±5%) in a controlled temperature (23±1° C.) and humidity (50±5%) under non-pathogenic conditions in 12 hours dark/light cycles. The mice were randomly divided into the following administration groups of GP1 to GP6, and allowed to freely drink each sample described until Day 36. One day later, a glucose resistance test was performed. In the test, the body weight and sample consumption for each mouse were monitored every day. The sample was then replaced with drinking water until the end of the test (Day 40).
(2) The glucose resistance test was performed to evaluate the therapeutic effects of short chain fatty acids in controlling the metabolism of the administered glucose. Sixteen (16) hours after overnight constraint, glucose (2 g/kg) was orally administered to the mice. One hour before and after the glucose administration, 10 μL of blood was collected from the tail vein, and mixed with heparin-containing (50 units/mL) saline in a volume (v:v) ratio of 1:1. A glucose concentration in the diluted blood was measured by FUJI DRY-CHEM 7000V (FUJIFILM Corporation). A final blood glucose concentration was calculated by the following equation:
Final glucose concentration (mg/mL)=[glucose]60 min−[glucose]0 min
(§2) The organs of the mice taken out after dissection were fixed by immediately putting them in a 10% neutral formalin solution and immersing them therein for 1 day. Thereafter, the solution was replaced with a 70% ethanol solution for paraffin embedding. In accordance with a routine method, all the organs after the paraffin embedding were processed into tissue sections with a thickness of 5 μm, which were hematoxylin/eosin (HE) stained by a routine method. The tissue sections were dehydrated with high-concentration alcohol, washed with xylene, then fixed, and subjected to microscope examination (biorevo, BZ-9000, Keyence). A region of the islets of Langerhans was determined by ImageJ software (NIH). The results are illustrated in FIG. 30. […] The t-test is the same as described above.

[3] = mouse, in vivo
Description: as §1
These organs were stored in a 10% neutral buffer for further histological analysis. The Student's t-test is the same as described above.
as §2, with “All” for “In accordance with a routine method, all”, “alcohol and” for “alcohol,”, “followed by” for “then fixed, and subjected to”, “villus length” for “region of the islets of Langerhans”, “measured” for “determined”, “(NIH).” for “(NIH). The results are illustrated in FIG. 30.”

[4] = Body weight in radiation enhancer Test Example 10; assay type: in vivo, C57BL/6J mice
Description: Five or seven 5 to 7-week-old C57BL/6J mice per group obtained similarly as in the above test were bred under similar conditions. 0.076×10^6 melanoma B16F10 cells per 100 μL (serum free DMEM) were injected subcutaneously into the outer side of the right thigh of each of the mice (Day 9 before irradiation). […] The irradiation conditions were set to 10 Gy, 150 kV, 20 mA, Al+Cu (0.5 mm+0.1 mm) filtration, and 330 mm intervals.
(3) The data on body weight changes in the mice as mean SD values (n=7) are illustrated in FIG. 35. The t-test is the same as described above.

[5] = test system: melanoma B16F10 cells; assay: Effect 2 as radiation enhancer (melanoma xenograft model); assay type: in vivo, C57BL/6J mice; conditions: for tumor weight / tumor size at the end of the test: Day 6 after irradiation
Description: Five or seven 5 to 7-week-old C57BL/6J mice per group obtained similarly as in the above test were bred under similar conditions. 0.076×10^6 melanoma B16F10 cells per 100 μL (serum free DMEM) were injected subcutaneously into the outer side of the right thigh of each of the mice (Day 9 before irradiation). When the cancer volume reached from 350 to 560 mm^3, the mice were randomly divided into the following administration groups. The irradiation conditions were set to 10 Gy, 150 kV, 20 mA, Al+Cu (0.5 mm+0.1 mm) filtration, and 330 mm intervals.
The cancer volume was calculated in the same manner as described above.
GP4: Butyric acid (i.p.; 250 mg/kg) (6 hours before irradiation)+IR group (n=7)
GP5: Butyric acid (i.p.; 500 mg/kg) (24 hours before irradiation)+IR group (n=7)
GP6: BNP (i.p.: 500 mg/kg) (6 hours before irradiation)+IR group (n=7)
GP7: BNP (i.p.: 500 mg/kg) (12 hours before irradiation)+IR group (n=7)
(1) The data on cancer proliferation profiles by 5 Gy irradiation after butyric acid and NP administration in a melanoma xenograft model is illustrated in FIG. 33.
(2) The data on the cancer weight at the end of the test (Day 6 after irradiation) is illustrated in FIG. 32 as mean±SEM values (n=from 2 to 7). The t-test is the same as in Test 8 (5).

Molecule	time until totally metabolized [1]	size of the islets of Langerhans [2]	glucose concentration in glucose resistance test [2]	villus length in the duodenum, jejunum, ileum, and large intestine [3]	body weight change / toxicity ([4]; i.p. before irradiation)	tumor proliferation suppressive effect (order of groups) ([5]; i.p. 6 hours before 5 Gy irradiation)	tumor weight / tumor size at the end of the test ([5]; i.p. 6 hours before irradiation)	tumor proliferation suppressive effect (order of groups) ([5]; i.p. 24 hours before 5 Gy irradiation)	tumor weight / tumor size at the end of the test ([5]; i.p. 24 hours before irradiation)	body weight change / toxicity ([4]; mouse, in vivo, ip)
O=C(O)CCCc1ccccc1 [4-phenylbutyric acid]	≤ 4 h	–	–	–	–	–	–	–	–	–
CCCC(=O)O [butyric acid]	–	reduced	no significant differences	same trend	body weight decrease is found	irradiation group <butyric acid (6 hours before) administration group	significantly reduced	BNP (6 hours before) administration group=butyric acid (24 hours before) administration group	significantly reduced	–
CCC(=O)O [propionic acid]	–	reduced	no significant differences	same trend	–	–	–	–	–	–
CH3O—(CH2CH2O)m—CH2PhCH2[CH2CH(OC(═O)CH2CH2CH3)]nS(═S)OCH2CH3 [N721]	–	–	–	did not have a shortened villus length or damage to the digestive tract	–	–	–	–	–	does not have a body weight decrease

Reference: patent US20220332876A1, “HYDROPHILIC-HYDROPHOBIC COPOLYMER CARRYING SHORT CHAIN FATTY ACID ESTER” (UNIVERSITY OF TSUKUBA, priority 2019, published 2022)
